Series [1] has as its system Calu-1 cells. In words: Cell viability (MTS) and caspase 3/7 assays with gefitinib. Type of series: cell-based, human. As to conditions: for Gefitinib sensitivity of transfected cells (caspase-3/7 and viability assays): Calu-1. The protocol:
(§1) For detection of caspase 3/7 activity, cells were cultured in 96-well plates, in triplicate, treated with 5 μM, 10 μM or 15 μM gefitinig and analyzed using a Caspase-Glo 3/7 Assay kit (Promega) according to the manufacturer's instructions. Continuous variables are expressed as means±s.d. Cell viability was examined with 3-(4,5dimethylthiazol-2-yl)-2,5-dipheniltetrazolium bromide (MTS)-Cell Titer 96 AQueous One Solution Cell Proliferation Assay (Promega) according to the manufacturer's protocol. Metabolically active cells were detected by adding 20 μl of MTS to each well. After 1 h of incubation, the plates were analyzed in a Multilabel Counter (Bio-Rad Laboratories).

The test system of a further series is AKT/ERKs pathways. Put plainly: Western blot of AKT/ERKs pathways after miRNA enforced expression. The class given is cell-based. As to conditions: A549; miRNA overexpression. The method, then: (§2) Total proteins from NSCLC were extracted with radioimmunoprecipitation assay (PIRA) buffer ([…], pH 7.5, 1% Triton, 0.1% SDS, 0.1% sodium deoxycholate and 1% Nonidet P40). Sample extract (50 μg) was resolved on 7.5-12% SDS-polyacriylamide gels (PAGS) using a mini-gel apparatus (Bio-Rad Laboratories) and transferred to Hybond-C extra nitrocellulose. Membranes were blocked for 1 h with 5% nonfat dry milk in Tris-buffered saline containing 0.05% Tween 20, incubated overnight with primary antibody, washed and incubated with secondary antibody, and visualized by chemiluminescence.
(§3) The following primary antibodies were used: Apaf-1, Snail, Slug (abcam), Src, Met, Dicer, Vimintin, E-cadherin, Zeb1, Zeb-2 (Santa Cruz), Bim, pErks, total Erks, pAkt, total Akt, GAPDH, Parp (cell signaling, Pkc-ε, (BD transduction lab), β-actin antibody, Fibronectin (Sigma). A secondary anti-rabbit or anti-mouse immunoglobulin G (IgG) antibody peroxidase conjugate (Chemicon) was used.

For a further series, the system named is PKC-ε and SRC. Put plainly: Western blot of PKC-ε and SRC protein. The class given is cell-based, human. The method, then:
as §2, §3
For orientation: In western blotting, separated proteins are transferred to a membrane and probed.

The subject of series [2] is A549 cells. In words: A549 xenograft in nude mice with gefitinib treatment. As to conditions: for Tumor growth: nude mice injected s.c. with stably infected A549 cells, 35 days; for Sensitivity to gefitinib-induced apoptosis in vivo: nude mice, stably infected A549 cells, gefitinib 200 mg/kg oral gavage, 2 weeks. The class given is in vivo. The protocol:
A549 cells were stably infected with a control miRNA, miR-103 and miR-203 or with control inhibitor of miRNA or a lentiviral inhibitor of miR-221 and miR-30c (SBI). We injected 5×10^6 viable cells subcutaneously into the right flanks of 6-week-old male nude mice (Charles River Breeding Laboratories). Treatment was started 7 d after tumor cell inoculation. […] Tumor size was assessed twice per week using a digital caliper. Tumor volumes were determined by measuring the length (1) and the width (w) of the tumor and calculating the volume (V=lw^2/2). We killed the mice 35 days after injection. Statistical significance between the control and treated mice was evaluated using a Student's t test. Mouse experiments were conducted after approval by the institutional animal care and use committee at Ohio State University.
A549 cells were stably infected with the Human pre-microRNA Expression Construct Lenti-miR expression plasmid containing the full-length miR-103, miR-203 or the anti-miR-221, miR-30c and the GFP gene under the control of two different promoters (System Biosciences). An empty vector was used as control. Pre-miRs expression and control constructs were packaged with pPACKH1 Lentivector Packaging Plasmid mix (System Biosciences) in a 293TN packaging cell line. Viruses were concentrated using PEGit Virus Precipitation Solution, and titers were analyzed using the UltraRapid Lentiviral Titer Kit (System Biosciences). Infected cells were selected by FACS analysis (FACScalibur; BD Bioscience). Infection efficiency >90% was verified by fluorescent microscopy and confirmed by real-time PCR for miRs expression.

For a further series, the system named is NSCLCs. In words: Transwell migration assay. The class given is cell-based. The settings on record: 24 h. The protocol: Transwell insert chambers with an 8-μm porous membrane (Greiner Bio One) were used for the assay. Cells were washed three times with PBS and added to the top chamber in serum-free medium. The bottom chamber was filled with medium containing 10% FBS. Cells were incubated for 24 h at 37° C. in a 5% CO2 humidified incubator. To quantify migrating cells, cells in the top chamber were removed by using a cotton-tipped swab, and the migrated cells were fixed in PBS, 25% glutaraldehyde and stained with crystal violet stain, visualized under a phase-contrast microscope and photographed. Crystalviolet-stained cells were then solubilized in acetic acid and methanol (1:1), and absorbance was measured at 595 nm.

For series [3], the system named is A549 cells. Put plainly: Cell-cycle analysis by flow cytometry. The class given is cell-based. The method, then:
(§4) For cell-cycle analysis, cells were plated in 6 cm dishes, transfected as indicated in the figures, trypsinized, washed in PBS, and fixed with ice-cold 70% ethanol while vortexing. Cells were rehydrated in PBS and stained 30 min at RT with propidium iodide ([…] PI, 0.5 mg/ml RNase in PBS) prior to flow-cytometric analysis. Every experiment was repeated 5 times independently, with two replicas for each sample.
On the technique in general: Flow cytometry measures light scatter and fluorescence of single cells or particles in a stream.

Series [4] deals with Calu-1 cells. In words: Cell-cycle analysis by flow cytometry. Type of series: cell-based, human. The method, then:
as §4

The test system of series [5] is mesenchymal markers and E-cadherin. Put plainly: Expression of epithelial and mesenchymal markers (immunofluorescence, immunoblot, qRT-PCR). As to conditions: Calu-1. The class given is cell-based, human. The protocol:
Cells were grown on Lab-Tek II CC2 chamber slides (Nunc), fixed with 4% paraformaldehyde and permeabilized with 0.2% Triton X-100/PBS before blocking with 10% sheep serum (Caltag Laboratories). All the primary antibodies were from Abcam. Secondary antibodies were goat antibodies to mouse or rabbit coupled to Alexa 488 (Invitrogen). F-actin was stained by using a phalloidin reagent (Invitrogen). Cell nuclei were visualized with DAPI (Sigma). Slides were mounted with SlowFade Gold Antifade reagent (Invitrogen).
as §2
(§5) Real-time PCR was performed using a standard TaqMan PCR Kit protocol on an Applied Biosystems 7900HT Sequence Detection System (Applied Biosystems). The 10 pl PCR reaction included 0.67 pl RT product, 1 pl TaqMan Universal PCR Master Mix (Applied Biosystems), […]. The reactions were incubated in a 96-well plate at 95° C. for […], followed by 40 cycles of 95° C. for 15 s and 60° C. for 1 mM All reactions were run in triplicate. The threshold cycle (CT) is defined as the fractional cycle number at which the fluorescence passes the fixed threshold. The comparative CT method for relative quantization of gene expression (Applied Biosystems) was used to determine miRNA and genes expression levels. The y axis represents the 2^(−ΔCT), or the relative expression of the different miRs and genes. MiRs expression was calculated relative to U44 and U48 rRNA (for microRNAs) and to GAPDH (for genes). Experiments were carried out in triplicate for each data point, and data analysis was performed by using software (Bio-Rad).

In another series the test system is Dicer. Put plainly: Western blot of Dicer. Type of series: cell-based. The settings on record: Calu-1. The method, then: as §2, §3
The subject of another series is miR-103 and miR-203. In words: qRT-PCR of miRNA expression after drug treatment. Type of series: cell-based, human. As to conditions: Calu-1; 1 and 3 μM, 24, 48 and 72 h; P<0.05. The protocol:
as §5
A general note: Real-time PCR tracks product formation cycle by cycle.

Series [6] deals with miR-30b, miR-30c, miR-221 and miR-222. In words: qRT-PCR of miRNA expression after drug treatment. Type of series: cell-based, human. The settings on record: for miR-30b, miR-30c, miR-221 and miR-222 expression after gefitinib: 5 μM or 10 μM gefitinib; for miR-221, miR-222, miR-30b and miR-30c expression after gefitinib: 10 μM gefitinib, 24 h. The protocol:
as §5

A further series has as its system PC9 cells. In words: Cell viability (MTS) and caspase 3/7 assays with gefitinib. The class given is cell-based. As to conditions: PC9 EGFR mutant; even at low doses (0.1 μM), 24 h. The method, then: as §1
For series [7], the system named is miR-21, miR-29a, miR-29c and miR-100. Put plainly: qRT-PCR of miRNA expression after drug treatment. Type of series: cell-based, human. As to conditions: 5 and 10 μM gefitinib. The protocol: as §5
Another series relates to BIM and APAF-1. In words: Western blot of BIM and APAF-1 protein. The class given is cell-based, human. As to conditions: 24 h; for BIM and APAF-1 protein after gefitinib: 5 μM or 10 μM gefitinib; for APAF-1 and BIM expression after gefitinib: 5 or 10 μM gefitinib. The method, then: as §2, §3
Another series deals with phosphorylated ERKs. In words: Western blot of ERK phosphorylation after gefitinib. Type of series: cell-based. As to conditions: 24 h; for Concentration of phosphorylated ERKs compared to untreated cells: 5 μM or 10 μM gefitinib; for ERKs phosphorylation after gefitinib: 5 or 10 μM gefitinib. The protocol:
as §2, §3

Where [8] appears, read: SU11274 treated Calu-1 cells exposed to different concentrations of gefitinib, 24 h.

For “miR-103: synthetic miR-103 or lentiviral construct containing full-length miR-103; targets PKC-ε and Dicer (AGCAGCATTGTACAGGGCTATGA; listed as DNA, chemistry not given here)”, in the series with Calu-1 cells [1], the “Gefitinib sensitivity of transfected cells (caspase-3/7 and viability assays)” value is given as “increased the sensitivity”. In addition, the “Phosphorylation of AKT, GSK3β and the ERKs” value in the series with AKT/ERKs pathways is recorded as “reduced phosphorylation”. For the same molecule, the “Concentrations of PKC-ε and SRC protein after enforced miRNA expression” value with PKC-ε and SRC is “clearly reduced”. For the same molecule, in the series on A549 cells [2], the Tumor growth entry is on record as “marked inhibition” and the “Sensitivity to gefitinib-induced apoptosis in vivo” value was “increased sensitivity”. Besides, the “Migration reduced compared to controls” value in the series on NSCLCs is “about 60%”. Also, the “Cell cycle distribution (G1 fraction; S and G2-M phases)” value in the series on A549 cells [3] was “increased G1 cell fraction”. For the same molecule, in the series on Calu-1 cells [4], the “Cell cycle distribution (G1 fraction; S and G2-M phases)” value is “increased G1 cell fraction”. For the same molecule, in [5], the E-cadherin expression result was “increased” and the “Expression of mesenchymal markers” value was “downregulation”. The Dicer level entry in the series with Dicer is listed as “marked down-regulation”.

Regarding “miR-203: synthetic miR-203 or lentiviral construct containing full-length miR-203; targets SRC (CTAGTGGTCCTAAACATTTCAC; listed as DNA, chemistry not given here)”, the “Gefitinib sensitivity of transfected cells (caspase-3/7 and viability assays)” value with Calu-1 cells [1] is “increased the sensitivity”. Also, the “Phosphorylation of AKT, GSK3β and the ERKs” value in the series on AKT/ERKs pathways was “reduced phosphorylation”. For the same molecule, the “Concentrations of PKC-ε and SRC protein after enforced miRNA expression” value in the series with PKC-ε and SRC is recorded as “clearly reduced”. For the same molecule, in the series on A549 cells [2], the Tumor growth entry is “marked inhibition” and the “Sensitivity to gefitinib-induced apoptosis in vivo” value is given as “increased sensitivity”. Besides, in the series on NSCLCs, the “Migration reduced compared to controls” value is on record as “about 60%”. Moreover, in the series with A549 cells [3], the “Cell cycle distribution (G1 fraction; S and G2-M phases)” value is listed as “increased G1 cell fraction”. Also, in the series on Calu-1 cells [4], the “Cell cycle distribution (G1 fraction; S and G2-M phases)” value was “increased G1 cell fraction”. Also, in series [5], the E-cadherin expression result is “increased” and the “Expression of mesenchymal markers” value is on record as “downregulation”.

With `Cc1[nH]c(/C=C2\C(=O)Nc3ccc(S(=O)(=O)N(C)c4cccc(Cl)c4)cc32)c(C)c1C(=O)N1CCN(C)CC1` [SU11274], in the series on Calu-1 cells [1] (setting [8]), the “Caspase-3/7 activity on exposure to gefitinib” value was “increased” and the “Cell viability on exposure to gefitinib” value is “decreased”. Besides, the “miR-103 and miR-203 expression after SU11274” value with miR-103 and miR-203 is on record as “increased”. Moreover, the “miR-30b/c and miR-221/miR-222 expression after SU11274” value in series [6] (Calu-1, 1 and 3 μM, 24, 48 and 72 h) was “down-regulation”.

For `COc1cc2ncnc(Nc3ccc(F)c(Cl)c3)c2cc1OCCCN1CCOCC1` [gefitinib], the “Cell growth / viability relative to untreated controls” value with PC9 cells is recorded as “significantly inhibited”. In addition, the “miR-21, miR-29a, miR-29c and miR-100 expression after gefitinib” value in series [7] (HCC827) and in series [7] (PC9) was “downregulated” each time. Besides, the “Downregulation of miR-21, miR-29a, miR-29c and miR-100 after gefitinib” value in series [7] (HCC827 GR) and in [7] (PC9 GR) was “not observed” throughout. Besides, the “miR-30b, miR-30c, miR-221 and miR-222 expression after gefitinib” value in series [6] (A549 gefitinib-resistant) was “does not decrease”; in series [6] (Calu-1 gefitinib-resistant), “does not decrease”; in series [6] (HCC827), “downregulation”; in [6] (PC9), “downregulation”. For the same molecule, the “miR-221, miR-222, miR-30b and miR-30c expression after gefitinib” value in series [6] (HCC827 GR) and in series [6] (PC9 GR) was “did not decrease” in each case. Besides, the “BIM and APAF-1 protein after gefitinib” value with BIM and APAF-1 (HCC827) was “increased amounts”; with BIM and APAF-1 (PC9), “increased amounts”. Besides, the “APAF-1 and BIM expression after gefitinib” value in the series on BIM and APAF-1 (HCC827GR) is reported as “did not change”; with BIM and APAF-1 (PC9GR), “did not change”. In addition, the “Concentration of phosphorylated ERKs compared to untreated cells” value with phosphorylated ERKs (HCC827) and in the series on phosphorylated ERKs (PC9) was “markedly lower” each time. Further, the “ERKs phosphorylation after gefitinib” value with phosphorylated ERKs (HCC827GR) and in the series with phosphorylated ERKs (PC9GR) was “did not change” in each case.

The values are drawn from patent US20140351963A1, “MiRNAs Useful to Reduce Lung Cancer Tumorigenesis and Chemotherapy Resistance and Related Compositions and Methods” (Ohio State Innovation Foundation, priority 2011, published 2014).
